{
  "source": "patent US20210052566A1",
  "about": "“METHODS FOR TREATING HEPATITIS B VIRUS (HBV) INFECTION” (INSERM (INSTITUT NATIONAL DE LA SANTÉ ET DE LA RECHERCHE …, priority 2018, published 2021)",
  "key": {"SRSF1": {"molecular_target": "SRSF1 (Homo sapiens, UniProt Q07955)", "sequence (Q07955 whole entry, species assumed)": "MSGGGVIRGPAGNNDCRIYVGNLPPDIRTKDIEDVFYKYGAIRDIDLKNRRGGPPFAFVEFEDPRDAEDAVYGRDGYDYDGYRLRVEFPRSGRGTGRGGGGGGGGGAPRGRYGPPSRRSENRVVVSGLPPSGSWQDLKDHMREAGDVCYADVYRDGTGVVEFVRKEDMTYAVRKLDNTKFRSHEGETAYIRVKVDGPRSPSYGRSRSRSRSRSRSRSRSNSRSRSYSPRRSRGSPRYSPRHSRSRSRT", "settings": "cited from earlier work"}, "HBV genotype C": {"test_system": "HBV genotype C", "assay": "De novo establishment of HBV infection/cccDNA in naive dHepaRG, genotype C (treatment before and during inoculation)", "format": "cell-based, Hepatitis B virus", "experimental": "FIG. 1. Experimental outlines. Treatment schemes: (a) Treatments in pre-infection: dHepaRG cells were treated for 24 h (at day −1) with 100 nM of PreS1 peptide (PreS1-pep) or 10 μM of 1C8, or untreated (NT). At day 0, cells were inoculated with HBV (MOI=250) or with HDV (MOI=25) in the presence of drugs for 24 h. For the tenofovir control (TDF at 10 μM), cells were treated at day 1 and 4 post-infection. Supernatant and cells were harvested at day 7 post-infection. (b) Treatments in post-infection: dHepaRG cells were inoculated with HBV (MOI=250) or with HDV (MOI=25). At days 4, 7 and 9 post infection, cells were treated with TDF 10 μM, lamivudine (3TC) at 10 μM, 1C8 10 μM or untreated (NT). […]\nFIG. 8. […] B) HBs and HBe secreted antigens in supernatant were quantified by ELISA, whereas HBV DNA contained in virions was quantified by qPCR after viral nucleic acid extraction from supernatant. […] Statistics were done by two-tailed Mann-Whitney test, with following significativity: *P<0.05, **P<0.01, ***P<0.001, ****P<0.0001. nd=not determined […]\n(§1) From cell culture supernatants, secreted HBe and HBs antigens were quantified by ELISA, using a chemiluminescence immunoassay kit (Autobio, China) following manufacturer's instructions. […]\nA HBV standard was used for quantification of extracellular viral DNA and RNA. […] CccDNA was normalized to β-Globin quantification. […]"}, "HepaRG cells": {"test_system": "HepaRG cells", "assay": "Cytotoxicity, CellTiter-Glo Luminescent Cell Viability Assay", "format": "cell-based, Human", "settings": "highest concentration tested 40 microM", "excerpt": "(§2) FIG. 5. Anti-HBV properties of 1C8 in persistently infected dHepaRG cells: genotype D. Differentiated HepaRG were infected with HBV genotype D at a MOI of 100 vge/cell or HDV genotype 1 at a MOI of 10 vge/cell for 7 days before being treated trice every 2-3 days with indicated molecules at a concentration of 10 microM. A) Total DNA and RNA were extracted from cells and subjected to qPCR and RTqPCR to detect HBV cccDNA, total HBV RNA or pregenomic HBV RNA. B) HBs and HBe secreted antigens in supernatant were quantified by ELISA, whereas HBV DNA contained in virions was quantified by qPCR after viral nucleic acid extraction from supernatant. C) Intracellular HDV RNA was quantified by RTqPCR after total RNA extraction from cells. D) Viability was monitored in 1C8-treated (or control treated; puromycin is a positive toxic molecule) cells by CellTiter-Glo® luminescent cell viability assay. Results are the mean+SEM of n=3 performed with 3 different differentiations of HepaRG. Statistics were done by two-tailed Mann-Whitney test, with following significativity: *P<0.05, **P<0.01, ***P<0.001, ****P<0.0001. nd=not determined\nCytotoxicity was measured in HepaRG cells treated with drugs as in experimental schemes presented if FIG. 1 with the “CellTiter-Glo® Luminescent Cell Viability Assay” from Promega, by following manufacturer's instructions."}, "HBV genotype D": {"test_system": "HBV genotype D", "assay": "Anti-HBV properties in persistently infected dHepaRG cells, genotype D (post-infection treatment)", "format": "cell-based, Hepatitis B virus", "experimental": "FIG. 1. Experimental outlines. Treatment schemes: (a) Treatments in pre-infection: dHepaRG cells were treated for 24 h (at day −1) with 100 nM of PreS1 peptide (PreS1-pep) or 10 μM of 1C8, or untreated (NT). At day 0, cells were inoculated with HBV (MOI=250) or with HDV (MOI=25) in the presence of drugs for 24 h. For the tenofovir control (TDF at 10 μM), cells were treated at day 1 and 4 post-infection. Supernatant and cells were harvested at day 7 post-infection. (b) Treatments in post-infection: dHepaRG cells were inoculated with HBV (MOI=250) or with HDV (MOI=25). At days 4, 7 and 9 post infection, cells were treated with TDF 10 μM, lamivudine (3TC) at 10 μM, 1C8 10 μM or untreated (NT). Supernatant and cells were harvested at day 11 postinfection.\nas §2\nHuman liver progenitor HepaRG cells were cultured in Williams medium (ThermoFisher) supplemented with 10% of FBS (Perbio), Penicillin/Streptomycin (500 U/mL), glutamine (2 mM), hydrocortisone Upjohn (2.5 mg/L; Serb laboratory), insulin (5 mg/L; Sigma Aldrich). For the differentiation process 2% of DMSO was added to the above-described supplemented Williams medium. […] The multiplicity of infection (MOI; expressed as virus genome equivalent/cell) is indicated in the figure legends, but was of 100 vge/cell if not precised.\nas §1\nA HBV standard was used for quantification of extracellular viral DNA and RNA. […]"}, "HIV-1": {"test_system": "HIV-1", "settings": "cited from earlier work"}},
  "data": [
    {"smiles": "Cn1ccc(=O)c(C(=O)Nc2nsc3ccc([N+](=O)[O-])cc23)c1", "note": "[1C8, 4-pyridinonebenzisothiazole carboxamide]", "values": [
      {"measurement": "inhibition of SRSF1", "setting": "SRSF1", "result": "does not inhibit"},
      {"measurement": "inhibition at 10 µM", "setting": "HBV genotype C; Hepatitis B virus, dHepaRG treated before and during HBV inoculation", "result": 70, "unit": "%"},
      {"measurement": "other viral markers (intracellular RNAs, HBeAg, HBsAg), genotype C", "setting": "HBV genotype C; dHepaRG treated before and during inoculation, 10 microM", "result": "also reduced"},
      {"measurement": "concentration toxic for cells (viability, CellTiter-Glo)", "setting": "HepaRG cells", "result": "> 40", "unit": "µM"},
      {"measurement": "reduction of secretion of viral antigens (HBs and HBeAg) in cell culture supernatant", "setting": "HBV genotype D; 10 microM three times, ELISA", "result": "60-70%"},
      {"measurement": "reduction of HBV virions (secreted HBV DNA) in cell culture supernatant", "setting": "HBV genotype D; 10 microM three times, qPCR", "result": "60-70%"},
      {"measurement": "reduction of the accumulation of intracellular HBV RNA", "setting": "HBV genotype D; MOI 100 vge/cell, treated three times every 2-3 days with 10 microM", "result": "60-70%"},
      {"measurement": "inhibition of HIV-1 replication", "setting": "HIV-1", "result": "strong inhibitor"}
    ]}
  ]
}
